Measured values as given in patent US9751837B2, “Kinase inhibitors” (RESPIVERT LIMITED, priority 2014, dated 2017).
≈ marks a conversion by molar mass, not a printed value.

Tests used:
[1] = biological target: GSK 3α (Homo sapiens (Human), UniProt P49840); assay: GSK 3α enzyme inhibition (Method 2), Z-LYTE FRET; type: biochemical; conditions: read-out: IC50 Values for Enzyme Inhibition GSK3α
Protocol: The enzyme inhibitory activities of compounds disclosed herein are determined by FRET using synthetic peptides labelled with both donor and acceptor fluorophores (Z-LYTE, Invitrogen Ltd., Paisley, UK).
The following two assay variants can be used for determination of GSK 3α inhibition.
The inhibitory activities of compounds of the invention against the GSK 3α enzyme isoform (Invitrogen), are evaluated by determining the level of activation/phosphorylation of the target peptide. The GSK3-α protein (500 ng/mL, 2.5 μL) is mixed with the test compound (2.5 μL at either 4 μg/mL, 0.4 μg/mL, 0.04 μg/mL, or 0.004 μg/mL) for 2 hr at RT. The FRET peptide (8 μM, 2.5 μL), which is a phosphorylation target for GSK3α, and ATP (40 μM, 2.5 μL) are then added to the enzyme/compound mixture and the resulting mixture incubated for 1 hr. Development reagent (protease, 5 μL) is added for 1 hr prior to detection in a fluorescence microplate reader (Varioskan® Flash, ThermoFisher Scientific).
In all cases, the site-specific protease cleaves non-phosphorylated peptide only and eliminates the FRET signal. Phosphorylation levels of each reaction are calculated using the ratio of coumarin emission (donor) over fluorescein emission (acceptor), for which high ratios indicate high phosphorylation and low ratios indicate low phosphorylation levels.
This method follows the same steps as Method 1 above, but utilises a shorter period of mixing of the test compound (105 minutes instead of 2 hours) with the GSK3-α protein. In addition, the concentrations of test compound employed are either 10 μg/mL, 1 μg/mL, 0.1 μg/mL, or 0.01 μg/mL

[2] = tested on: Jurkat cells; assay: Cell cytotoxicity assay (r); type: cell-based, human; conditions: 24 hours
Protocol: 1×10^5 Jurkat cells (immortalised human T lymphocytes) are added to the appropriate number of wells of a 96 well plate in 100 μL of media (RPMI supplemented with 10% foetal bovine serum). 1 μL of DMSO control (final concentration 1.0% v/v) or test compound (final concentration 20, 5 or 1 μg/mL) is added to the wells and incubated at 37° C., 5% CO2. After 24 hours, the plate is centrifuged at 1200 rpm for 3 minutes and the supernatant discarded. Cells are then resuspended in 150 μL (final concentration 7.5 μg/mL) of propidium iodide (PI) in PBS and incubated at 37° C., 5% CO2 for 15 minutes. After 15 minutes, cells are analysed by flow cytometry (BD accuri) using the FL3 window. The % viability is calculated as the % of cells that are PI negative in the test wells normalised to the DMSO control.

[3] = Solubility in fasted-state simulated colonic fluid (FaSSCoF) at pH 6.5; type: physicochemical; conditions: 25 °C, pH 6.5, fassgf or other biorelevant, thermodynamic from solid
In short: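 Compounds were suspended at up to 2-10 mg/mL in pH 6.5 Tris/maleate FaSSCoF containing a five-bile-acid mixture, phosphatidylcholine, palmitic acid and BSA. After 24 h equilibration at 25° C the suspension was filtered and the filtrate quantified by HPLC peak area against a standard.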

[4] = pH 6.5 FaSSCoF Solubility (mg/mL) Run 1
[5] = pH 6.5 FaSSCoF Solubility (mg/mL) Run 2

Chain of GSK 3α (P49840 whole entry): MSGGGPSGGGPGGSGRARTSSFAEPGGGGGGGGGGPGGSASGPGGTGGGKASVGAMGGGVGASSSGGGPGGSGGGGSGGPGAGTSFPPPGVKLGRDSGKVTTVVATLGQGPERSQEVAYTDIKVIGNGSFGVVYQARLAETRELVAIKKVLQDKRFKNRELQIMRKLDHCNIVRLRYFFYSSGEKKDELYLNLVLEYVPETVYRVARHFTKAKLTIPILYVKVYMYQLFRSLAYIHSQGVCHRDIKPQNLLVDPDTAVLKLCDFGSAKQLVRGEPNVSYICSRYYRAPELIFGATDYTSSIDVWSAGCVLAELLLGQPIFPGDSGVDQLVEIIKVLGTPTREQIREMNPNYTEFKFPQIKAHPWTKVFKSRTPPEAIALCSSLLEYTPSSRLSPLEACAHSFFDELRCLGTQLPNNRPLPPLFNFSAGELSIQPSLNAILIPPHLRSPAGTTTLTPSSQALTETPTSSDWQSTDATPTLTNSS

SMILES	IC50 [1] [µM]	solubility thermodynamic at 24 h [3, 4] [µg/mL]	solubility thermodynamic at 24 h [3, 5] [µg/mL]	% Viability at 20 μg/mL [2] [%]	further results
COc1cc(Nc2cc(Oc3ccc(NC(=O)Nc4cc(C(C)(C)C)cc(NS(C)(=O)=O)c4OC)c4ccccc34)ccn2)ccc1C(=O)N(C)CCN1CCOCC1 [17(ab), 4-[[4-[[4-[[5-tert-butyl-3-(methanesulfonamido)-2-methoxy-phenyl]carbamoylamino]-1-naphthyl]oxy]-2-pyridyl]amino]-2-methoxy-N-methyl-N-(2-morpholinoethyl)benzamide]	0.596				
COc1cc(Nc2cc(Oc3ccc(NC(=O)Nc4cc(C(C)(C)C)cc(NS(C)(=O)=O)c4OC)c4ccccc34)ccn2)ccc1C(=O)NCCN(C)CCO [17(ac), 4-[[4-[[4-[[5-tert-butyl-3-(methanesulfonamido)-2-methoxy-phenyl]carbamoylamino]-1-naphthyl]oxy]-2-pyridyl]amino]-N-[2-[2-hydroxyethyl(methyl)amino]ethyl]-2-methoxy-benzamide]	3.02				
COc1cc(Nc2cc(Oc3ccc(NC(=O)Nc4cc(C(C)(C)C)cc(NS(C)(=O)=O)c4OC)c4ccccc34)ccn2)ccc1C(=O)NCCN1CCC(F)(F)CC1 [17(al), 4-[[4-[[4-[[5-tert-butyl-3-(methanesulfonamido)-2-methoxy-phenyl]carbamoylamino]-1-naphthyl]oxy]-2-pyridyl]amino]-N-[2-(4,4-difluoro-1-piperidyl)ethyl]-2-methoxy-benzamide]	11.8				
COc1cc(Nc2cc(Oc3ccc(NC(=O)Nc4cc(C(C)(C)C)cc(NS(C)(=O)=O)c4OC)c4ccccc34)ccn2)ccc1C(=O)NCCN1C[C@@H](C)O[C@@H](C)C1 [17(c), 4-[[4-[[4-[[5-tert-butyl-3-(methanesulfonamido)-2-methoxy-phenyl]carbamoylamino]-1-naphthyl]oxy]-2-pyridyl]amino]-N-[2-[(2S,6R)yl]ethyl]-2-methoxy-benzamide]	> 11.9				
COc1cc(Nc2cc(Oc3ccc(NC(=O)Nc4cc(C(C)(C)C)cc(NS(C)(=O)=O)c4OC)c4ccccc34)ccn2)ccc1C(=O)NCCN1CCOC(C)(C)C1 [17(d), 4-[[4-[[4-[[5-tert-butyl-3-(methanesulfonamido)-2-methoxy-phenyl]carbamoylamino]-1-naphthyl]oxy]-2-pyridyl]amino]-N-[2-(2,2-dimethylmorpholin-4-yl)ethyl]-2-methoxy-benzamide]	> 11.9				
COc1cc(Nc2cc(Oc3ccc(NC(=O)Nc4cc(C(C)(C)C)cc(NS(C)(=O)=O)c4OC)c4ccccc34)ccn2)ccc1C(=O)NCC(=O)N1CCOCC1 [17(e), 4-[[4-[[4-[[5-tert-butyl-3-(methanesulfonamido)-2-methoxy-phenyl]carbamoylamino]-1-naphthyl]oxy]-2-pyridyl]amino]-2-methoxy-N-(2-morpholino-2-oxo-ethyl)benzamide]	7.42				
COc1cc(Nc2nccc(Oc3ccc(NC(=O)Nc4cc(C(C)(C)C)cc(NS(C)(=O)=O)c4OC)c4ccccc34)n2)ccc1S(N)(=O)=O [Example 28, 4-((4-((4-(3-(5-(tert-Butyl)-2-methoxy-3-(methylsulfonamido)phenyl)ureido)naphthalen-1-yl)oxy)pyrimidin-2-yl)amino)-2-methoxybenzenesulfonamide]		< 1	< 1		% Viability at 1 μg/mL [2]: 100.0%
COc1cc(Nc2cc(Oc3ccc(NC(=O)Nc4cc(C(C)(C)C)cc(NS(C)(=O)=O)c4OC)c4ccccc34)ccn2)ccc1-n1ccccc1=O [Example 31, N-(5-(tert-Butyl)-2-methoxy-3-(3-(4-((2-((3-methoxy-4-(2-oxopyridin-1(2H)-yl)phenyl)amino)-pyridin-4-yl)oxy)naphthalen-1-yl)ureido)phenyl)methanesulfonamide]		3 (≈ 4.01 µM)	3 (≈ 4.01 µM)	99.0	
COc1cc(Nc2cc(Oc3ccc(NC(=O)Nc4cc(C(C)(C)C)cc(NS(C)(=O)=O)c4OC)c4ccccc34)ccn2)ccc1C(=O)NCC(CO)(CO)CO [Example 38, 4-((4-((4-(3-(5-(tert-Butyl)-2-methoxy-3-(methylsulfonamido)phenyl)ureido)naphthalen-1-yl)oxy)pyridin-2-yl)amino)-N-(3-hydroxy-2,2-bis(hydroxymethyl)propyl)-2-methoxybenzamide]		14 (≈ 17.1 µM)	12 (≈ 14.7 µM)	6.0	% Viability at 1 μg/mL [2]: 90.0%
COc1cc(Nc2cc(Oc3ccc(NC(=O)Nc4cc(C(C)(C)C)cc(NS(C)(=O)=O)c4OC)c4ccccc34)ccn2)cc(OC)c1C(=O)NCCN(C)C [Example 39, 4-((4-((4-(3-(5-(tert-Butyl)-2-methoxy-3-(methylsulfonamido)phenyl)ureido)naphthalen-1-yl)oxy)pyridin-2-yl)amino)-N-(2-(dimethylamino)ethyl)-2,6-dimethoxybenzamide]		222 (≈ 278 µM)	247 (≈ 309 µM)	1.5	solubility thermodynamic at 24 h ([3]; pH 6.5 FaSSCoF Solubility (mg/mL) Run 3): 73 µg/mL (≈ 91.3 µM); solubility thermodynamic at 24 h ([3]; pH 6.5 FaSSCoF Solubility (mg/mL) Run 4): 97 µg/mL (≈ 121 µM)
COc1cc(Nc2cc(Oc3ccc(NC(=O)Nc4cc(C(C)(C)C)cc(NS(C)(=O)=O)c4OC)c4ccccc34)ccn2)ccc1S(=O)(=O)CC(CO)(CO)CO [Example 45, N-(5-(tert-Butyl)-3-(3-(4-((2-((4-((3-hydroxy-2,2-bis(hydroxymethyl)propyl)sulfonyl)-3-methoxyphenyl)amino)pyridin-4-yl)oxy)naphthalen-1-yl)ureido)-2-methoxyphenyl)-methanesulfonamide]		5 (≈ 5.97 µM)	5 (≈ 5.97 µM)	9.8	

Further lines, with some results ahead:

IC50 [1] [µM]	solubility thermodynamic at 24 h [3, 4] [µg/mL]	solubility thermodynamic at 24 h [3, 5] [µg/mL]	SMILES	% Viability at 20 μg/mL [2] [%]	further results
2.93			COc1cc(Nc2cc(Oc3ccc(NC(=O)Nc4cc(C(C)(C)C)cc(NS(C)(=O)=O)c4OC)c4ccccc34)ccn2)ccc1C(=O)NCCCN1CCN(C)CC1 [17(aa), 4-[[4-[[4-[[5-tert-butyl-3-(methanesulfonamido)-2-methoxy-phenyl]carbamoylamino]-1-naphthyl]oxy]-2-pyridyl]amino]-2-methoxy-N-[3-(4-methylpiperazin-1-yl)propyl]benzamide]		
4.48			COc1cc(Nc2cc(Oc3ccc(NC(=O)Nc4cc(C(C)(C)C)cc(NS(C)(=O)=O)c4OC)c4ccccc34)ccn2)ccc1C(=O)NCCN1CCCOCC1 [17(ai), 4-[[4-[[4-[[5-tert-butyl-3-(methanesulfonamido)-2-methoxy-phenyl]carbamoylamino]-1-naphthyl]oxy]-2-pyridyl]amino]-2-methoxy-N-[2-(1,4-oxazepan-4-yl)ethyl]benzamide]		
2.64			COc1cc(Nc2cc(Oc3ccc(NC(=O)Nc4cc(C(C)(C)C)cc(NS(C)(=O)=O)c4OC)c4ccccc34)ccn2)ccc1C(=O)NCCCN1CCCOCC1 [17(aj), 4-[[4-[[4-[[5-tert-butyl-3-(methanesulfonamido)-2-methoxy-phenyl]carbamoylamino]-1-naphthyl]oxy]-2-pyridyl]amino]-2-methoxy-N-[3-(1,4-oxazepan-4-yl)propyl]benzamide]		
1.09			COc1cc(Nc2cc(Oc3ccc(NC(=O)Nc4cc(C(C)(C)C)cc(NS(C)(=O)=O)c4OC)c4ccccc34)ccn2)ccc1C(=O)NCCN1CCCN(C)CC1 [17(f), 4-[[4-[[4-[[5-tert-butyl-3-(methanesulfonamido)-2-methoxy-phenyl]carbamoylamino]-1-naphthyl]oxy]-2-pyridyl]amino]-2-methoxy-N-[2-(4-methyl-1,4-diazepan-1-yl)ethyl]benzamide]		
	11 (≈ 13.5 µM)	9 (≈ 11.1 µM)	COc1c(NC(=O)Nc2ccc(Oc3ccnc(Nc4ccc(C(=O)NCCCN5CCOCC5)c(O)c4)c3)c3ccccc23)cc(C(C)(C)C)cc1NS(C)(=O)=O [Example 29, 4-((4-((4-(3-(5-(tert-Butyl)-2-methoxy-3-(methylsulfonamido)phenyl)ureido)naphthalen-1-yl)oxy)pyridin-2-yl)amino)-2-hydroxy-N-(3-morpholinopropyl)benzamide]	2.0	
